{"source": "paper PMC8011931", "about": "“Identification, Structure–Activity Relationship, and Biological Characterization of 2,3,4,5-Tetrahydro-1H-pyrido[4,3-b]indoles as a Novel Class of CFTR Potentiators” (Journal of Medicinal Chemistry, 2020)", "type_in_all_cases": "cell-based", "key": {"[1]": {"biological_target": "T1, F508del-CFTR (Homo sapiens, UniProt P13569, DEL508-508)", "T1 sequence (P13569 with tags, fused parts or gaps DEL508-508)": "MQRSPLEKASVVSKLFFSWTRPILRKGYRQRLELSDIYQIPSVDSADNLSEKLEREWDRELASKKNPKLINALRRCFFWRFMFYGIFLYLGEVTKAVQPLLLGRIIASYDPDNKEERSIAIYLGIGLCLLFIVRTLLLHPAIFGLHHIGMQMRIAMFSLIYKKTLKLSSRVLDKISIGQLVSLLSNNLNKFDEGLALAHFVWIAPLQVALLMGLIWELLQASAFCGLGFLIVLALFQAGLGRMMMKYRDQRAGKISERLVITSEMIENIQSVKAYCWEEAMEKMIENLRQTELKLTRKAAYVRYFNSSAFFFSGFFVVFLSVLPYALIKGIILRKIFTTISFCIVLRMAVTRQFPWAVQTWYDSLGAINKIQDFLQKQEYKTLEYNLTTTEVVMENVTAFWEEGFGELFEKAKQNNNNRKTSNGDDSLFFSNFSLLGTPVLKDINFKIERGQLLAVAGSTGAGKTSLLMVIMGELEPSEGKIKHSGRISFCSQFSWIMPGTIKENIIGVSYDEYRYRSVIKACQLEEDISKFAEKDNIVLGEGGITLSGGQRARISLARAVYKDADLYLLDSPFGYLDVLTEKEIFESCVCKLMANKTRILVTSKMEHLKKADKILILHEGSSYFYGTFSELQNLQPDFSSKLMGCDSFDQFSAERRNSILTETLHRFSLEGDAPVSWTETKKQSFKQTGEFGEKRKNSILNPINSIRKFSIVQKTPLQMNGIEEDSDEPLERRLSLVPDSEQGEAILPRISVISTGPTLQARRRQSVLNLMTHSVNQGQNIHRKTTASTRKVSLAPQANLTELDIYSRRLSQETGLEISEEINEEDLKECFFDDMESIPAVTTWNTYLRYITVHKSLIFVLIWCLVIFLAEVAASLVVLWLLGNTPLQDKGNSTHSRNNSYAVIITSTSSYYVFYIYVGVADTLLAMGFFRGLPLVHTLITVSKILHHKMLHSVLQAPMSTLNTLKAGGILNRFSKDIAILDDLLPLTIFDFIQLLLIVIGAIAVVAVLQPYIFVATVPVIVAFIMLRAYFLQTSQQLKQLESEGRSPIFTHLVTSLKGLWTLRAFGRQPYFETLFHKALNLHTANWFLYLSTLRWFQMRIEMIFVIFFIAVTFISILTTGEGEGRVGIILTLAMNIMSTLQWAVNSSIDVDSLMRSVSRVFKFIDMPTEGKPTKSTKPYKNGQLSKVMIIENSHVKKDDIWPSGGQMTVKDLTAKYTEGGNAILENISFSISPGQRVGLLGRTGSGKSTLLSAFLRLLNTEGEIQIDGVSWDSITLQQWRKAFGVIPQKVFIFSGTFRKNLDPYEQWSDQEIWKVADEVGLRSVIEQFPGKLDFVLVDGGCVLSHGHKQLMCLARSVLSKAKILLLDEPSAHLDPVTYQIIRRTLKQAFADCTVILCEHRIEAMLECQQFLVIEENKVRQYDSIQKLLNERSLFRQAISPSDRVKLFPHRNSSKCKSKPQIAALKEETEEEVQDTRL", "experiment": "HS-YFP-based assay for CFTR activity on F508del-CFTR FRT cells rescued at 32 °C for 24 h", "parameters": "expressed in transfected cells; key to Emax: fold increase in F508del-CFTR rescue relative to hit 3 (normalized)", "experimental": "The chemical library was screened in duplicate on a Fischer rat thyroid (FRT) cell line, stably coexpressing F508del-CFTR and the halide-sensitive yellow fluorescent protein, HS-YFP.[23],[34],[35] To overcome the F508del trafficking defect, cells were initially incubated for 24 h at 32 °C and then acutely treated (15–30 min) with a single compound (5 μM) in combination with forskolin (10 μM). After stimulation, the F508del-CFTR activity in the plasma membrane was calculated by measuring the rate of fluorescence quenching arising from iodide influx.[34] This activity was compared to that of wells containing forskolin alone (negative control) or forskolin plus VX-770 (1 μM, as a positive control) (Figure 2A). Analysis of screening performance with the Z′ method gave a score of 0.6, which can be considered optimal for this type of assay. The activity scores for each compound were then plotted as an ordered distribution (Figure 2B). All compounds whose average activity calculated from the two rounds of screening was greater than 185% with respect to the negative control (i.e., forskolin alone) were considered as primary hits.\nThe primary hits were confirmed by testing them at different concentrations, in order to extrapolate the dose–response relationship. First, we focused on the F508del mutant. The compounds were tested in the low micromolar range, in the presence of forskolin (10 μM), on F508del-CFTR FRT cells following rescue of the trafficking defect by low-temperature incubation, as done for the primary screening. The most interesting hits were subsequently tested for their ability to overcome the more severe gating defect of pure class III mutant using FRT cells stably expressing G551D-CFTR (Figure 3B).\nThe role of the heteroaryl group (A) acylating the position 2 of the tetrahydro-γ-carboline was initially explored by modifying the substituent on the pyrazolyl residue and replacing the pyrazole with other rings, while keeping the 8-methoxy carboline moiety unmodified. The activity of each compound is described in terms of normalized maximal efficacy (Emax), the maximum fold increase in the rescue of F508del-CFTR activity with respect to hit 3, and potency (EC50), the concentration producing half-maximal efficacy.\nFRT cells stably expressing mutant F508del-CFTR or G551D-CFTR and the halide-sensitive yellow fluorescent protein (HS-YFP) YFP-H148Q/I152L and CFBE41o-cells stably expressing F508del-CFTR and HS-YFP were generated as previously described.[21],[57] FRT cells were cultured using the Coon’s modification of Ham’s F12 medium, while CFBE41o-cells were cultured in the modified Eagle’s medium. Media were supplemented with 10% fetal calf serum, 2 mM L-glutamine, 100 U/mL of penicillin, and […] of streptomycin. For functional assays of CFTR activity based on the HS-YFP assays, CFBE41o- or FRT cells were plated (50,000 cells/well) on clear-bottom 96-well black microplates (Corning Life Sciences, Acton, MA). The following day, cells were assayed. In the case of FRT cells expressing F508del-CFTR, plates were kept at 32 °C (or treated with correctors at 37 °C where indicated) for an additional 24 h to rescue the mutant trafficking defect, before assays.\nPrior assay, cells were washed with phosphate-buffered saline (PBS) containing (in mM) 137 NaCl, 2.7 KCl, 8.1 Na2HPO4, 1.5 KH2PO4, 1 CaCl2, and 0.5 MgCl2. Cells were then incubated for 25 min with 60 μL of PBS plus forskolin (20 μM) and test compounds (at the desired concentration) to stimulate mutant CFTR. Cells were then transferred to microplate readers (FluoStar Optima; BMG Labtech, Offenburg, Germany) for CFTR activity determination. The plate readers were equipped with high-quality excitation (HQ500/20X: 500 ± 10 nm) and emission (HQ535/30M: 535 ± 15 nm) filters for YFP (Chroma Technology). […]"}, "[2]": {"biological_target": "T1, F508del-CFTR", "experiment": "HS-YFP assay on F508del-CFTR CFBE41o- cells, acute stimulation", "parameters": "expressed in transfected cells", "details": "acute stimulation in the presence of forskolin, Figure 4A", "experimental": "The preliminary activity of these three hits was further evaluated in secondary screening assays. Although featuring the same common scaffold, in order to possibly discriminate the most interesting hit for further structural investigations, the compounds belonging to the family of tetrahydro-γ-carbolines were tested on more relevant cell models. First, the hits were tested on an immortalized bronchial epithelial cell line (CFBE41o-) stably expressing F508del-CFTR and HS-YFP. […]\nPrior assay, cells were washed with phosphate-buffered saline (PBS) containing (in mM) 137 NaCl, 2.7 KCl, 8.1 Na2HPO4, 1.5 KH2PO4, 1 CaCl2, and 0.5 MgCl2. […] Cells were then transferred to microplate readers (FluoStar Optima; BMG Labtech, Offenburg, Germany) for CFTR activity determination. The plate readers were equipped with high-quality excitation (HQ500/20X: 500 ± 10 nm) and emission (HQ535/30M: 535 ± 15 nm) filters for YFP (Chroma Technology). The assay consisted of a continuous 14 s fluorescence reading, 2 s before and 12 s after injection of 165 μL of an iodide-containing solution (PBS with Cl^– replaced by I^–; final I^– concentration 100 mM). Data were normalized to the initial background-subtracted fluorescence. […]"}, "[3]": {"biological_target": "T2, CFTR (Homo sapiens, UniProt P13569)", "T2 construct": "primary human bronchial epithelial (HBE) cells, from non-CF individuals; endogenous in cells; host or cells: primary human bronchial epithelial cells from non-CF individuals", "T2 sequence (P13569 whole entry)": "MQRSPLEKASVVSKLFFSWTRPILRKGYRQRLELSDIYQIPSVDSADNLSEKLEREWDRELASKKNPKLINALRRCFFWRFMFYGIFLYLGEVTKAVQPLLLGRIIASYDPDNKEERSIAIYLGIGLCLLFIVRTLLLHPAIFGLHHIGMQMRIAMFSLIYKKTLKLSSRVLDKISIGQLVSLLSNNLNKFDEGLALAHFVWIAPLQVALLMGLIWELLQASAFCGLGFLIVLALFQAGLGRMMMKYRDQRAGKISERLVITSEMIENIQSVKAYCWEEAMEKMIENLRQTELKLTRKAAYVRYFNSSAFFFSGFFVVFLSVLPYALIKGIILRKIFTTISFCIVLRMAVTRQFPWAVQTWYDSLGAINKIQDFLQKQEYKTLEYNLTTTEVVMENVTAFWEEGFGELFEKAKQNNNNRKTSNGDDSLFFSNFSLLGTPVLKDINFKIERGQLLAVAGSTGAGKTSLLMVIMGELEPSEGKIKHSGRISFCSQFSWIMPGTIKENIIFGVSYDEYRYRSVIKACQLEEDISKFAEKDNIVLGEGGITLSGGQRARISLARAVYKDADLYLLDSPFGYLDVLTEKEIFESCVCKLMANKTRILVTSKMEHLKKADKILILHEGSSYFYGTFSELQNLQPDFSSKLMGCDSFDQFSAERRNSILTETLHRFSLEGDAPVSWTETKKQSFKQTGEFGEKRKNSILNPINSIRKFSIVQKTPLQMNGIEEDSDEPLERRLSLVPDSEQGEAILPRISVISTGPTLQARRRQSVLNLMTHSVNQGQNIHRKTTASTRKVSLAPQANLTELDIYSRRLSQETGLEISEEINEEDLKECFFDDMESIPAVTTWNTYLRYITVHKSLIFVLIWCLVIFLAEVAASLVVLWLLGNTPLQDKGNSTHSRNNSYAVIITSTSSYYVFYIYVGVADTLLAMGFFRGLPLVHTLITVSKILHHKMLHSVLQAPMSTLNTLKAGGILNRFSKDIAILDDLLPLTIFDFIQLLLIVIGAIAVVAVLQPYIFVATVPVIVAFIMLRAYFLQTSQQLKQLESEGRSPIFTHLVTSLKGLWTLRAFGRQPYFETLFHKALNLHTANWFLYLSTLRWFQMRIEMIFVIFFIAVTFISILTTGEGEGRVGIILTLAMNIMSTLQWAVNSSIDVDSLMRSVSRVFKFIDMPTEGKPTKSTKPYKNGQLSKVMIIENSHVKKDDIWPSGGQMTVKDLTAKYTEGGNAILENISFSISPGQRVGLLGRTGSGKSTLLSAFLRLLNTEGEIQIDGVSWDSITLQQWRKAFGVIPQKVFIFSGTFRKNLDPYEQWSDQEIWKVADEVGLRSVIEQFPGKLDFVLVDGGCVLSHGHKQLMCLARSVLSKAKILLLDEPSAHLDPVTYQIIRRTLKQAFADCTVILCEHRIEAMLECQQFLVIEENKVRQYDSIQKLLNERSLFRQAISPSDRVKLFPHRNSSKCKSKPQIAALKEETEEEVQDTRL", "experiment": "Short-circuit current recordings on primary HBE cells from non-CF individuals", "description": "Subsequently, the ability of compounds to elicit CFTR-mediated chloride secretion was verified on primary human bronchial epithelial (HBE) cells, from non-CF individuals, in short-circuit current experiments. In this respect, it should be noticed that potentiators are also able to stimulate wild-type CFTR, provided that a submaximal cAMP-dependent stimulation is applied.[20],[22] Accordingly, cells were stimulated with a submaximal concentration of the cAMP analogue, CPT-cAMP, followed by increasing concentrations of the potentiator hit.[20],[22]\nFinally, potentiator 39 and VX-770 were further evaluated in primary HBE cells from non-CF individuals, using short-circuit current measurements, to assess the ability of compounds to maximally activate CFTR function in the presence of a submaximal cAMP stimulation. After the addition of amiloride to inhibit sodium absorption through the ENaC channel, the potentiators were added at the maximal effective concentration (1 μM) after which epithelia were stimulated with a submaximal concentration of CPT-cAMP (5 μM), followed by a maximal concentration of the cAMP analogue (100 μM) (Figure 8). We then measured the extent of CFTR-mediated chloride current elicited by submaximal cAMP stimulation in the presence of a potentiator and compared it to total CFTR-mediated chloride current, determined as the current inhibited by CFTR inhibitor-172. In parallel, other epithelia were stimulated only with the two concentrations of the cAMP analogue, in the absence of a potentiator.\nPrimary bronchial epithelial cells were cultured as previously described.[58] In brief, epithelial cells were cultured in a serum-free medium (LHC9 mixed with RPMI 1640, 1:1) supplemented with hormones and supplements to support cell number amplification. Then, the cells were seeded at high density on porous membranes (500,000 cells for 1 cm^2 Snapwell inserts, for Ussing chamber studies; 200,000 cells for 0.33 cm^2 Mini-Transwell inserts, for TEER/PD measurements). After 24 h, the serum-free medium was replaced with Dulbecco’s modified Eagle’s medium (DMEM)/Ham’s F12 containing 2% fetal bovine serum (FBS) plus hormones and supplements. Differentiation of cells to form a tight epithelium was monitored by measuring transepithelial electrical resistance and potential difference with an epithelial voltohmmeter (EVOM1, World Precision Instruments). […]\nDifferentiated bronchial epithelia on Snapwell inserts were mounted in a Ussing chamber with internal fluid circulation. […] The short-circuit current was recorded with a PowerLab 4/25 (ADInstruments) analog-to-digital converter connected to a personal computer."}}}
{"smiles": "CN(C)c1ccc2cc(C(=O)N3CCc4[nH]c5ccccc5c4C3)[nH]c2c1", "note": "[Compound 1, (6-(Dimethylamino)-1H-indol-2-yl)-(1,3,4,5-tetrahydro-2H-pyrido[4,3-b]indol-2-yl)methanone]", "values": [{"measurement": "EC50", "setting": "[1]; F508del-CFTR FRT cells rescued at 32 °C for 24 h, plus forskolin, mean ± SD (n = 3–6), n.a.: not active (up to 20 μM)", "value": "0.12 ± 0.014", "unit": "µM"}, {"measurement": "Emax", "setting": "[1]; supplementary csv, same data as Tables 1–3", "value": "1.04 ± 0.07"}, {"measurement": "dose-dependent activation of mutant CFTR", "setting": "[2]", "value": "the most effective"}]}
{"smiles": "CC(C)(C)c1cc(C(C)(C)C)c(NC(=O)c2c[nH]c3ccccc3c2=O)cc1O", "note": "[VX-770, reference compound]", "values": [{"measurement": "comparison of effectiveness of potentiators", "setting": "[3]; 1 μM for both compounds, Figure 8B", "value": "similarly effective"}, {"measurement": "increase of the fraction of CFTR-mediated chloride current activated by submaximal cAMP stimulation", "setting": "[3]; potentiator 1 μM, CPT-cAMP 5 μM, versus no potentiator", "value": "more than 2 fold"}]}
